In patent US12704520B2, “Melanogenesis detection method using FAM86A” (Research & Business Foundation Sungkyunkwan University, priority 2019, dated 2026):

Legend:
[1] = tested on: FAM86A (NM_201400.4); assay: shRNA mean knockdown level of FAM86A (Table 1); type: cell-based; details: Homo sapiens FAM86A, pLKO.1 vector
[2] = tested on: FAM86 (NM_027446.2); assay: shRNA mean knockdown level of FAM86 (Table 1); type: cell-based; details: Mus musculus FAM86, pLKO.1 vector
[3] = tested on: B16F10 cells; assay: Melanogenesis induced by α-MSH (melanin content assay); type: cell-based, mouse; details: α-MSH 100 nM, 48 hours
[4] = tested on: protein FAM86A; assay: Western blotting of protein FAM86A after α-MSH treatment; type: cell-based, mouse; details: B16F10 cells, α-MSH 100 nM, 48 hours
Method: The B16F10 cells cultured in Example 1 were seeded in 6-well plates at a density of 5×10^4 cells per well, grown for 24 hours, and then treated with α-MSH at 100 nM. The cells were incubated in an incubator under conditions of 37° C. and 5% CO2 for 48 hours, and washed with PBS twice. Subsequently, PBS was completely removed, and then 200 μL of RIPA buffer, which is a tissue lysis and staining reagent, was added to each plate, followed by harvesting cells with a scraper. Afterward, a BCA assay was conducted to quantify proteins, and electrophoresis was performed using 10% SDS-PAGE. The protein in the resulting SDS-PAGE gel was transferred onto a PVDF membrane, and the resulting PVDF membrane onto which the protein transfer had been completed was blocked in TBS-T (in 100 mM NaCl, 10 mM Tris, 0.1% (v/v) Tween-20, pH 7.4 (PBST) containing 3% BSA) at room temperature. After washing three times with TBS-T for 10 minutes, a primary antibody in 3% BSA dissolved in TBS-T was treated for 1 hour, and then sufficiently washed with TBS-T. In addition, a secondary antibody for 1 hour, and washed three times with PBS-T for 10 minutes each. Subsequently, the amount and location of a specific protein were confirmed using an ECL detection system. […]

[5] = tested on: tyrosinase, TYRP-1, TYRP-2, MITF and FAM86A genes; assay: Real-time PCR of melanogenesis-associated genes and FAM86A after α-MSH treatment; type: cell-based, mouse; details: B16F10 cells, α-MSH 100 nM, 48 hours
Method: The B16F10 cells cultured in Example 1 were seeded in 6-well plates at a density of 5×10^4 cells per well, grown for 24 hours, and then treated with α-MSH at 100 nM. The cells were incubated in an incubator under conditions of 37° C. and 5% CO2 for 48 hours. After 48 hours of incubation, the medium was completely removed, the cells were decomposed with TRIzol and neutralized using BCP. The neutralized liquid was treated with isopropanol to precipitate mRNA. Subsequently, only the precipitated mRNA was collected using a centrifuge, and used for the experiment. Intracellular mRNA was synthesized into cDNA using a cDNA kit, and the expression levels of tyrosinase, TYRP-1, TYRP-2, MITF and FAM86A genes, which are important for melanogenesis, were determined by PCR.

SEQ ID NO: 11: FAM86A shRNA (Homo sapiens, NM_201400.4), pLKO.1 vector, target sequence SEQ ID NO: 21 (DNA CCGGGCAGAAACTGTTTCCCTACGACTCGAGTCGTAGGGAAACAGTTTCTGCTTTTTG)
Mean Knock down level [1]: 0.93

SEQ ID NO: 12: FAM86A shRNA (Homo sapiens, NM_201400.4), pLKO.1 vector, target sequence SEQ ID NO: 22 (DNA CCGGCGAGGGAATGTCCTTCTCAATCTCGAGATTGAGAAGGACATTCCCTCGTTTTTG)
Mean Knock down level [1]: 0.84

SEQ ID NO: 14: FAM86A shRNA (Homo sapiens, NM_201400.4), pLKO.1 vector, target sequence SEQ ID NO: 24 (DNA CCGGGCCAGCAGTTCTGGTTCTTAACTCGAGTTAAGAACCAGAACTGCTGGCTTTTTG)
Mean Knock down level [1]: 0.77

SEQ ID NO: 13: FAM86A shRNA (Homo sapiens, NM_201400.4), pLKO.1 vector, target sequence SEQ ID NO: 23 (DNA CCGGGATGTTGTCATTGCAGCAGATCTCGAGATCTGCTGCAATGACAACATCTTTTTG)
Mean Knock down level [1]: 0.79

SEQ ID NO: 16: FAM86 shRNA (Mus musculus, NM_027446.2), pLKO.1 vector, target sequence SEQ ID NO: 26 (DNA CCGGGAGCATTCAGCCATCGTAATCCTCGAGGATTACGATGGCTGAATGCTCTTTTTG)
Mean Knock down level [2]: 0.56

SEQ ID NO: 15: FAM86A shRNA (Homo sapiens, NM_201400.4), pLKO.1 vector, target sequence SEQ ID NO: 25 (DNA CCGGGCAGACATCACTGCCAAGTTACTCGAGTAACTTGGCAGTGATGTCTGCTTTTTG)
Mean Knock down level [1]: 0.6

Ac-Ser-Tyr-Ser-Met-Glu-His-Phe-Arg-Trp-Gly-Lys-Pro-Val-NH2 [α-MSH]
melanogenesis [3]: increased | expression level of the protein FAM86A [4]: decreases | expression level of FAM86A gene [5]: decreased | expression level of MITF gene [5]: significantly increased | expression level of TYRP-1 gene [5]: significantly increased | expression level of TYRP-2 gene [5]: significantly increased | expression level of tyrosinase gene [5]: significantly increased
